Measured values reported in paper PMC8766756, “Insights on Cancer Cell Inhibition, Subcellular Activities, and Kinase Profile of Phenylacetamides Pending 1H-Imidazol-5-One Variants” (Frontiers in Pharmacology, 2022).
Entries after “also recorded” stand apart in the source; their conditions may differ.

Experiments:
[1] = tested on: HL60 cells; assay: Cell cycle analysis by flow cytometry; assay type: cell-based, human; conditions: HL60, 1 µM, 48 h, vs untreated control
Method: The cell cycle analysis of the HL60 cells after treatment was performed with 1 µM of KIM-161 by using flow cytometry.
The cells (3.5 × 10^5/well) were incubated with 1 µM 4c (KIM-161) at 37°C for 48 h. Subsequently, the cells were collected and washed twice with ice-cold PBS (1X). The washed cells were fixed on ice for 20 min using a fixation buffer containing paraformaldehyde. Hoechst 33342 (10 μg/ml; Thermo Fisher Scientific, Inc.) was used for staining. The cells were then incubated in the dark for 30 min on ice. A minimum total of 20,000 events were acquired using a BD FACSAria III flow cytometer. Flowlogic version 7.2.1 software (Inivai Technologies, Victoria, Australia) was used to obtain the percentages of cells in the G1, S, and G2/M phases in the singlet-gated population.

[2] = tested on: C-Jun; assay: Human Phospho-Kinase Array in HL60 cells; assay type: cell-based
Text: (§1) We also measured changes in kinase activities of some selected Ser/Thr kinases using the Human Phospho-Kinase Array® kit (R&D Systems) which encompasses phosphoprotein-specific capture antibodies spotted at a certain location (in duplicates) on a nitrocellulose membrane. The signal intensities, detected by a sandwich immunoassay, are proportional to the amount of each phosphokinase in the cell lysate (Figure 8).
(§2) FIGURE 8 Phosphokinase proteome profile of KIM-161 in HL60 cell line. (A) Cells lysates were prepared after 10 h treatment with KIM-161 and applied to the membranes prespotted with the different antibodies. […] The height of each bar represents the average intensity of certain protein signals in treated cells/untreated × 100. Therefore, the dotted line represents the control percentage (100%).
(§3) The phosphorylation profile of 48 kinases was performed using the Proteome Profiler Human Phospho-Kinase Array an antibody array kit, by R&D Systems (Minneapolis, MN, USA). Total protein was extracted from the cell lysates treated with 365 nM KIM-161 for 10 h using the lysis buffer provided in the kit and quantified using the Bio-Rad DC Protein Assay kit (USA). The nitrocellulose membrane set (A&B), pre-spotted with the capture antibodies, was first blocked with 1 ml of Array buffer 1 at RT for 1 h in an 8-well multi-dish on a rocking platform shaker. Approximately 600 µg of protein concentrate (<334 µL) was diluted in the Array buffer 1 to a final volume of 2 ml. 1 ml of the protein sample was added onto the membrane set and incubated overnight at 4°C on a rocking platform shaker. Subsequently, membranes were washed with 15 ml of 1× wash buffer thrice for 5 min at RT, and the excess buffer was completely drained. The membranes A&B were then incubated with appropriate detection antibody cocktails A&B that were reconstituted using the 1× Array buffer 2/3 for 2 h at RT. After the incubation was complete, the membranes were washed with 15 ml of 1× wash buffer thrice for 5 min at RT, and the excess buffer was completely drained. Streptavidin-HRP (1:2000), diluted in 1× Array buffer 2/3, was applied onto the membranes and incubated for 30 min at RT on a rocking platform shaker. The membranes were washed thrice, and Chemi Reagent 1&2 were applied in equal volumes for detection on C-DiGit®Blot Scanner (LI-COR Odyssey Imaging Systems, Lincoln, Nebraska, USA) using the Image Studio 5.0 software.

[3] = tested on: HSP27 (S78/S82); assay: Human Phospho-Kinase Array in HL60 cells; assay type: cell-based
Text: as §1, §2, §3

[4] = tested on: CREB; assay: Human Phospho-Kinase Array in HL60 cells; assay type: cell-based
Text: as §1, §2, §3

[5] = tested on: HSP60; assay: Human Phospho-Kinase Array in HL60 cells; assay type: cell-based
Text: as §1, §2, §3

[6] = tested on: ERK1/2 (T202/Y204, T185/Y187); assay: Human Phospho-Kinase Array in HL60 cells; assay type: cell-based
Text: as §1, §2, §3

[7] = tested on: JNK 1/2/3; assay: Human Phospho-Kinase Array in HL60 cells; assay type: cell-based
Text: as §1, §2, §3

[8] = tested on: GSK-3α/β (S21/S9); assay: Human Phospho-Kinase Array in HL60 cells; assay type: cell-based
Text: as §1, §2, §3

[9] = Stability in human liver microsomes; assay type: in vitro ADME; conditions: 37°C, t1/2
Method: The clearance of KIM-161 in MLM or HLM was determined at 37°C as previously described ([Yang et al., 2007]). Both MLM and HLM were obtained from Merck KGaA (Darmstadt, Germany), Cat. No. M9441 (MLM) and M0317 (HLM). The assays were conducted in triplicate in 96-well deep polypropylene plates. KIM-161 was incubated with pooled liver microsomes from male CD-1 mice (Life Technologies, Grand Island, NY), tetrasodium NADPH and magnesium chloride for 60 min at 37°C with gentle shaking. At five time points, the reaction mixture aliquots were transferred to 96-shallow well stop plates on ice containing acetonitrile with 0.1 µM propafenone. […] The standard curves for the test compound were generated using five concentrations in triplicate that were processed as above but with zero incubation time. The stop plates were centrifuged at 2000g for 10 min, and then, the supernatant aliquots were transferred to a Waters Aquity® UPLC 700 µL 96-well sample plate with cap mat (Waters, Milford, MA). The amount of the compound remaining in the supernatant was quantified by LC/MS/MS using a Waters Xevo TQ MS (electrospray positive mode) coupled to a Waters Aquity® UPLC (BEH column, C18). Propafenone was used as the internal standard. GraphPad® Prism v.5.04 was used for nonlinear fitting of time course data to generate t1/2 values.

[10] = C-Jun spot, HL60 cells, 10 h (KIM-161 365 nM)
[11] = HL60, 365 nM, 10 h, vs untreated
[12] = HL60, 365 nM, 10 h, vs untreated, listed as KIM-161
[13] = HSP27 spot, HL60 cells, 10 h (KIM-161 365 nM)
[14] = CREB spot, HL60 cells, 10 h (KIM-161 365 nM)
[15] = HSP60 spot, HL60 cells, 10 h (KIM-161 365 nM)
[16] = ERK1/2 spot, HL60 cells, 10 h (KIM-161 365 nM)
[17] = JNK 1/2/3 spot, HL60 cells, 10 h (KIM-161 365 nM)
[18] = GSK-3α/β spot, HL60 cells, 10 h (KIM-161 365 nM)

COc1ccc(/C=C2\N=C(C)N(c3ccc(CC(=O)NCc4ccccc4)cc3)C2=O)cc1 [Compound 4c, (Z)-N-Benzyl-2-(4-(4-(4-methoxybenzylidene)-2-methyl-5-oxo-4,5-dihydro-1H-imidazol-1-yl)phenyl)acetamide]
Cell cycle distribution: G0/G1 phase [1]: decrease in the G0/G1 phase | Cell cycle distribution: G2/M phase [1]: increased the population of cells in the G2/M phase | Cell cycle distribution: PreG phase [1]: accumulate in PreG phase | Cell cycle distribution: S phase [1]: no difference is seen in cell population in the S phase | Normalized to HK [2, 10]: 0.1136 | Normalized x10K [2, 10]: 1136.44 | Signal [2, 10]: 451.20 | enhancement of c-Jun [2, 11]: 15.8% | activity at 0.365 µM ([2]; Homo sapiens, HL-60, C-Jun spot, HL60 cells, 10 h (KIM-161 365 nM), untreated = 100, read-out: % Ctrl): 116% | change of HSP27 phosphokinase signal [3, 12]: strongly suppresses; also recorded: strong downregulation | Normalized to HK [3, 13]: 0.00 | Normalized x10K [3, 13]: 0.00 | Signal [3, 13]: 0.00 | activity at 0.365 µM ([3]; Homo sapiens, HL-60, HSP27 spot, HL60 cells, 10 h (KIM-161 365 nM), untreated = 100, read-out: % Ctrl): 0% | Normalized to HK [4, 14]: 0.0405 | Normalized x10K [4, 14]: 405.44 | Signal [4, 14]: 142.45 | reduction of CREB activity [4, 11]: 36.7% | activity at 0.365 µM ([4]; Homo sapiens, HL-60, CREB spot, HL60 cells, 10 h (KIM-161 365 nM), untreated = 100, read-out: % Ctrl): 63.3% | reduction of HSP60 activity [5, 11]: 28.5% | Normalized to HK [5, 15]: 0.0227 | Normalized x10K [5, 15]: 227.18 | Signal [5, 15]: 90.20 | activity at 0.365 µM ([5]; Homo sapiens, HL-60, HSP60 spot, HL60 cells, 10 h (KIM-161 365 nM), untreated = 100, read-out: % Ctrl): 71.5% | Normalized to HK [6, 16]: 0.0000 | Normalized x10K [6, 16]: 0.00 | Signal [6, 16]: 0.00 | change of ERK1/2 phosphokinase signal [6, 12]: strongly suppresses; also recorded: strong downregulation | activity at 0.365 µM ([6]; Homo sapiens, HL-60, ERK1/2 spot, HL60 cells, 10 h (KIM-161 365 nM), untreated = 100, read-out: % Ctrl): 0% | reduction of JNK1/2/3 activity [7, 11]: 26.0% | activity at 0.365 µM ([7]; Homo sapiens, HL-60, JNK 1/2/3 spot, HL60 cells, 10 h (KIM-161 365 nM), untreated = 100, read-out: % Ctrl): 74% | Normalized to HK [7, 17]: 0.0031 | Normalized x10K [7, 17]: 31.34 | Signal [7, 17]: 11.01 | Normalized to HK [8, 18]: 0.0000 | Normalized x10K [8, 18]: 0.00 | Signal [8, 18]: 0.00 | change of GSK-3α/β phosphokinase signal [8, 12]: strongly suppresses; also recorded: strong downregulation | activity at 0.365 µM ([8]; Homo sapiens, HL-60, GSK-3α/β spot, HL60 cells, 10 h (KIM-161 365 nM), untreated = 100, read-out: % Ctrl): 0% | HLM stability [9]: 22.9 min
